Laboratory results reported in ChEMBL document CHEMBL5331104, “Discovery of BRD4-HDAC Dual Inhibitors with Improved Fungal Selectivity and Potent Synergistic Antifungal Activity against Fluconazole-Resistant Candida albicans” (J Med Chem, 2023).
Activity calls are given as the source filed them.

Assays:
Candida albicans [1] = experiment: Synergetic antifungal activity against Candida albicans 0304103 assessed as microbial growth inhibition incubated for 24 hrs in the presence of (S)-N-Hydroxy-4-((2(1-methyl-6-phenyl-4H-benzor[f](1,2,4)-triazolo-[4,3-a][1,4]diazepin 4-yl)acetamido)methyl)benzamide by checkerboard microdilution method; format: functional
Candida albicans [2] = experiment: Synergetic antifungal activity against Candida albicans 0304103 assessed as microbial growth inhibition incubated for 24 hrs in the presence of (S, E)-N-Hydroxy-3-(4-(2-(1-methyl-6-(p-tolyl)-4H-benzo(f)-(1,2,4)triazolo(4,3-a)[1,4]diazepin-4-y)acetamido)phenyl)-acrylamide by checkerboard microdilution method; format: functional
Cryptococcus neoformans [3] = experiment: Antifungal activity against Cryptococcus neoformans H99 assessed as fungal growth inhibition incubated for 24 hrs by broth dilution method; format: functional
Candida albicans [4] = experiment: microbe, parasite or virus in culture; format: functional; conditions: 0304103
Description: Antifungal activity against Candida albicans 0304103 assessed as microbial growth inhibition

Candida albicans [5] = experiment: Synergetic antifungal activity against Candida albicans 0304103 assessed as microbial growth inhibition incubated for 24 hrs in the presence of (S,E)-N-Hydroxy-3-(4-(2-(l-methyl-6-phenyl-4H-benzo[f][1,2,4]-triazolo[4,3-a][1,4]diazepin-4-y1)acetamido)phenyl)acrylamide by checkerboard microdilution method; format: functional
Candida albicans [6] = experiment: Synergetic antifungal activity against Candida albicans 0304103 assessed as microbial growth inhibition incubated for 24 hrs in the presence of (S)-4-(2-(6-(4-Chloropheny1)-1-methy1-4H-benzo(f)(1,2,4)-triazolo(4,3-a)[1,4]diazepin-4-yl)acetamido)methyl)-N-hydroxybenzamide by checkerboard microdilution method; format: functional
Candida albicans [7] = experiment: Synergetic antifungal activity against Candida albicans 0304103 assessed as microbial growth inhibition incubated for 24 hrs in the presence of (S)-2-(8-Chloro-6-(2-chlorophenyl)-1-methyl-4H-benzo[f][1,2,4]-triazolo(4,3-a][1,4]diazepin-4-y1)-N-(4-(2-(hydroxyamino)-2-oxoethyl)-phenyl)acetamide by checkerboard microdilution method; format: functional
Candida albicans [8] = experiment: Synergetic antifungal activity against Candida albicans 0304103 assessed as microbial growth inhibition incubated for 24 hrs in the presence of (S,E)-3-(4-(2-(8-Chloro-6-(2-chlorophenyl)-1-methyl-4H-benzo-[f][1,2,4]triazolo[4,3-a](1,4)diazepin-4-yl)acetamido)pheny1)-N-hydroxy-acrylamide by checkerboard microdilution method; format: functional
Candida albicans [9] = experiment: Synergetic antifungal activity against Candida albicans 0304103 assessed as microbial growth inhibition incubated for 24 hrs in the presence of (S)-4-(2-(6-(4-Chlorophenyl)-1-methyl-7,8,9,10-tetrahydro-4Hbenzo-[4,5]thieno(3,2-f)(1,2,4)triazolo(4,3-a)[1,4]diazepin-4-yl)-acetamido)-N-hydroxybenzamide by checkerboard microdilution method; format: functional
Candida albicans [10] = experiment: Synergetic antifungal activity against Candida albicans 0304103 assessed as microbial growth inhibition incubated for 24 hrs in the presence of (S)-2-(6-(4-Chlorophenyl)-1-methyl-7,8,9,10-tetrahydro-4H-benzo-(4,5)thieno[3,2-f][1,2,4]triazolo(4,3-a)(1,4)diazepin-4-yl)-N-(4-(2-(hydroxyamino)-2-oxoethyl)phenyl)acetamide by checkerboard microdilution method; format: functional
Candida albicans [11] = experiment: Synergetic antifungal activity against Candida albicans 0304103 assessed as microbial growth inhibition incubated for 24 hrs in the presence of (S,E)-3-(4-(2-(6-(4-Chlorophenyl)-1-methyl-7,8,9,10-tetrahydro-4H-benzo-(4,5]thieno(3,2-f)(1,2,4)triazolo(4,3-a)(1,4]diazepin-4-yl)acetamido)pheny1)N-hydroxyacrylamide by checkerboard microdilution method; format: functional
[Candida] auris [12] = Antifungal activity against Candida auris 0029 assessed as microbial growth inhibition; format: functional; conditions: Candidozyma auris
[Candida] auris [13] = Antifungal activity against Candida auris 0030 assessed as microbial growth inhibition; format: functional; conditions: Candidozyma auris
Candida albicans [14] = experiment: Antifungal activity against Candida albicans 9172 assessed as microbial growth inhibition; format: functional
Candida albicans [15] = experiment: Antifungal activity against Candida albicans 9884 assessed as microbial growth inhibition; format: functional
Cryptococcus neoformans [16] = experiment: Antifungal activity against Cryptococcus neoformans 011405 assessed as microbial growth inhibition; format: functional
[Candida] auris [17] = Synergetic antifungal activity against Candida auris 0030 assessed as microbial growth inhibition incubated for 24 hrs in the presence of (S)-4-((2-(6-(4-Chlorophenyl)-1-methyl-7,8,9,10-tetrahydro-4H-benzo-(4,5)thieno[3,2-f][1,2,4]triazolo(4,3-a)(1,4)diazepin-4-yl)-acetamido)-methyl)-N-hydroxybenzamide by checkerboard microdilution method; format: functional; conditions: Candidozyma auris
Candida albicans [18] = experiment: Synergetic antifungal activity against Candida albicans 10061 assessed as microbial growth inhibition incubated for 24 hrs in the presence of (S)-4-((2-(6-(4-Chlorophenyl)-1-methyl-7,8,9,10-tetrahydro-4H-benzo-(4,5)thieno[3,2-f][1,2,4]triazolo(4,3-a)(1,4)diazepin-4-yl)-acetamido)-methyl)-N-hydroxybenzamide by checkerboard microdilution method; format: functional
Nakaseomyces glabratus = experiment: Synergetic antifungal activity against Candida glabrata 4408 assessed as microbial growth inhibition incubated for 24 hrs in the presence of (S)-4-((2-(6-(4-Chlorophenyl)-1-methyl-7,8,9,10-tetrahydro-4H-benzo-(4,5)thieno[3,2-f][1,2,4]triazolo(4,3-a)(1,4)diazepin-4-yl)-acetamido)-methyl)-N-hydroxybenzamide by checkerboard microdilution method; format: functional
Cryptococcus neoformans [19] = experiment: Synergetic antifungal activity against Cryptococcus neoformans 011405 assessed as microbial growth inhibition incubated for 24 hrs in the presence of (S)-4-((2-(6-(4-Chlorophenyl)-1-methyl-7,8,9,10-tetrahydro-4H-benzo-(4,5)thieno[3,2-f][1,2,4]triazolo(4,3-a)(1,4)diazepin-4-yl)-acetamido)-methyl)-N-hydroxybenzamide by checkerboard microdilution method; format: functional
Candida albicans [20] = experiment: Antibiofilm activity against FLC-resistant Candida albicans 0304103 assessed as inhibition of biofilm formation at 64 ug/mL incubated for 24 hrs by XTT reduction assay; format: functional, organism-based; conditions: dose 64.0 µg/ml
Candida albicans [21] = experiment: Antifungal activity against Candida albicans 0304103 assessed as reduction in yeast to hypha transition at 32 ug/mL incubated for 2 hrs by inverse fluorescence microscopy; format: functional, organism-based; conditions: dose 32.0 µg/ml
Candida albicans [22] = experiment: Downregulation of ERG11 expression in Candida albicans 0304103 at 32 ug/mL incubated for 24 hrs by RT q-PCR analysis; format: functional; conditions: dose 32.0 µg/ml
Candida albicans [23] = experiment: Downregulation of CDR1 expression in Candida albicans 0304103 at 32 ug/mL incubated for 24 hrs by RT q-PCR analysis; format: functional; conditions: dose 32.0 µg/ml
Candida albicans [24] = experiment: Downregulation of CDR2 expression in Candida albicans 0304103 at 32 ug/mL incubated for 24 hrs by RT q-PCR analysis; format: functional; conditions: dose 32.0 µg/ml
Candida albicans [25] = experiment: Downregulation of MDR1 expression in Candida albicans 0304103 at 32 ug/mL incubated for 24 hrs by RT q-PCR analysis; format: functional; conditions: dose 32.0 µg/ml
Candida albicans [26] = experiment: Downregulation of GCA1 expression in Candida albicans 0304103 at 32 ug/mL incubated for 24 hrs by RT q-PCR analysis; format: functional; conditions: dose 32.0 µg/ml
Candida albicans [27] = experiment: Downregulation of ADH5 expression in Candida albicans 0304103 at 32 ug/mL incubated for 24 hrs by RT q-PCR analysis; format: functional; conditions: dose 32.0 µg/ml

OC(Cn1cncn1)(Cn1cncn1)c1ccc(F)cc1F [FLUCONAZOLE]
> 64 mg/L: MIC80 (Candida albicans [4]) | MIC80 ([Candida] auris [12]) | MIC80 ([Candida] auris [13]) | MIC80 (Candida albicans [14])
active: Activity (Candida albicans [26])
2 mg/L: MIC80 (Candida albicans [2]) | MIC80 (Candida albicans [5]) | MIC80 (Candida albicans [6]) | MIC80 (Candida albicans [15]) | MIC80 (Nakaseomyces glabratus) | MIC80 (Cryptococcus neoformans [19])
64 mg/L: MIC80 ([Candida] auris [17])
0.5 mg/L: MIC80 (Candida albicans [8]) | MIC80 (Candida albicans [10])
0.25 mg/L: MIC80 (Candida albicans [11])
8 mg/L: MIC80 (Cryptococcus neoformans [16])
inactive: Activity (Candida albicans [20]) | Activity (Candida albicans [21]) | Activity (Candida albicans [22]) | Activity (Candida albicans [23]) | Activity (Candida albicans [24]) | Activity (Candida albicans [25]) | Activity (Candida albicans [27])
1 mg/L: MIC80 (Candida albicans [1]) | MIC80 (Cryptococcus neoformans [3]) | MIC80 (Candida albicans [7]) | MIC80 (Candida albicans [9]) | MIC80 (Candida albicans [18])
